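Growth conditions: 96-well plates. Treatment: test compound, 48 hours, 5 concentrations. Analysis: linear interpolation between bracketing concentrations; unreached endpoints set to highest concentration. TGI is the concentration that stops growth completely.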
Experiments:
Test in all cases: NCI tumour cell line growth inhibition, 48 h
NCI-H23 lung = system: NCI-H23 lung
HCC-2998 colon = system: HCC-2998 colon
SK-MEL-5 melanoma = system: SK-MEL-5 melanoma
SK-MEL-2 melanoma = system: SK-MEL-2 melanoma
HCT-116 colon = system: HCT-116 colon
OVCAR-3 ovarian = system: OVCAR-3 ovarian
K-562 leukemia = system: K-562 leukemia
SK-MEL-28 melanoma = system: SK-MEL-28 melanoma
OVCAR-4 ovarian = system: OVCAR-4 ovarian
NCI-H460 lung = system: NCI-H460 lung

Structure (SMILES)	TGI (NCI-H23 lung) [µM]	TGI (HCC-2998 colon) [µM]	TGI (SK-MEL-5 melanoma) [µM]	TGI (SK-MEL-2 melanoma) [µM]	TGI (HCT-116 colon) [µM]	TGI (OVCAR-3 ovarian) [µM]	TGI (K-562 leukemia) [µM]	TGI (SK-MEL-28 melanoma) [µM]	TGI (OVCAR-4 ovarian) [µM]	TGI (NCI-H460 lung) [µM]
COc1cccc(-c2nccc3c(OCc4ccccc4)c(OC)c(OC)cc23)c1	> 100	> 100	> 100	> 100	> 100	> 100	> 100			
Cc1cc(O)cc(O)c1C(=O)O[C@]1(C)C(=O)C=C2C=C(/C=C/C(=O)O)OC=C2C1=O	> 100	> 100	> 100	> 100	> 100	> 100	> 100	> 100	> 100	> 100
CN[C@@H](C)[C@@H](O)c1ccccc1	> 100	> 100	> 100	> 100	> 100	> 10	> 100	> 100	> 100	> 100
CCCCCN(CCCCC)CC(C)(C)C(O)c1ccc(OC)c2ccccc12 (centres undefined)	32.3	31.4	12.8	32.7	61.9	26	25	24.5	27.9	24.9
Cn1ccnc1CCc1ccc(Cl)c(Cl)c1	> 100		> 100	> 100	> 100	> 100	> 100	> 100	> 100	> 100
CC(=O)Oc1cc(OC(C)=O)c2c(C)cc(=O)oc2c1	> 100		> 100	> 100	> 100	> 100	> 100	> 100	> 100	
CN(C)c1ccc(/C=C/C(=O)O)cc1		> 100	> 100	> 100	> 100	> 100	> 100			> 100
O=C(CSc1nnc(-c2ccc(N=Cc3ccc(Cl)cc3)cc2)o1)Nc1ccc([N+](=O)[O-])cc1	38.1		67.9	60.8	9.43		97.1	33.7	84.9	> 100
O=[N+]([O-])c1ccc([N+]2=NC(c3ccccc3)=NN(c3ccccc3)C2)cc1	> 100		> 100	92.4	> 100	> 100	> 100	> 100	> 100	> 100
Cn1c(=O)c(C(=O)NC(=O)NCCCCCOC(=O)CCCCCCCCCCC(=O)OCCCCCNC(=O)NC(=O)c2cn(Cc3ccccc3)c(=O)n(C)c2=O)cn(Cc2ccccc2)c1=O	> 100	> 100	> 100	> 100	> 100	> 100	> 100	> 100	> 100	> 100
O=C1/C(=C/c2ccccc2)NC(=S)N1CN1CCCCC1	> 100		> 100	> 100	> 100	> 100	> 100	> 100	92.6	
CCOC(=O)C(C)(C)Oc1ccc2c(-c3ccc(Cl)cc3)c(-c3ccc(Cl)cc3)c(=O)oc2c1	> 100	> 100	> 100	> 100	> 100	> 100	> 100	> 100	> 100	> 100
CCCCn1c2ccccc2c2ccc3c(c21)C(=O)C=CC3=O	> 100	> 100	> 100	> 100	> 100	> 100	> 100	> 100	> 100	> 100
CCN(CC)CCOc1ccc(C(O)(Cc2ccc(OC)cc2)c2ccccc2)cc1 (centres undefined)	45.1	27.5	26.1	35.9	26.8	> 100	18.6	27	75.3	51.9
COC(=O)c1ccccc1C1=C([N+](=O)[O-])C(c2ccccc2)C(C#N)=C(N)O1 (centres undefined)	> 100	> 100	> 100	> 100	> 100	88.9	> 100	> 100		> 100
COC12CCC(C(C(=O)c3ccccc3)=C1C(=O)c1ccccc1)C(O)C2 (centres undefined)	> 100	> 100	> 100	> 100	> 100	> 100	> 100	> 100	> 100	
O=C(O)CCc1ccc2c(c1)CC1(Cc3ccccc3C1)C2	> 100	> 100	> 100	> 100	> 100	> 100			> 100	
Cc1c(-c2nnc(-c3ccccc3)o2)c(=O)n(-c2ccccc2)n1C	> 100	> 100		> 100	> 100	> 100	> 100	> 100	> 100	> 100
C=C1CCCC2[C@](C)(CC3=C(O)C(=O)C=C(OC)C3=O)[C@@H](C)CC[C@]12C (some centres undefined)	12.5		9.35	12.5	17.7	31.3	> 100	> 100	78.2	17.5

Reference: PubChem BioAssay (NCI)
